Experimental data published in patent US20110263564A1, “PYRIDINE, BICYCLIC PYRIDINE AND RELATED ANALOGS AS SIRTUIN MODULATORS” (Sirtris Pharmaceuticals, Inc., priority 2008, published 2011).

Each compound was assayed against T1, SIRT1 (Homo sapiens, UniProt Q96EB6) (assay: Mass spectrometry based assay of SIRT1 activity (deacetylation of a p53-based acetylated peptide)). Details: 10 nM SIRT1, 0.5 μM peptide substrate, 120 μM βNAD+, 25 minutes at 25° C.
T1 sequence (Q96EB6 1-747): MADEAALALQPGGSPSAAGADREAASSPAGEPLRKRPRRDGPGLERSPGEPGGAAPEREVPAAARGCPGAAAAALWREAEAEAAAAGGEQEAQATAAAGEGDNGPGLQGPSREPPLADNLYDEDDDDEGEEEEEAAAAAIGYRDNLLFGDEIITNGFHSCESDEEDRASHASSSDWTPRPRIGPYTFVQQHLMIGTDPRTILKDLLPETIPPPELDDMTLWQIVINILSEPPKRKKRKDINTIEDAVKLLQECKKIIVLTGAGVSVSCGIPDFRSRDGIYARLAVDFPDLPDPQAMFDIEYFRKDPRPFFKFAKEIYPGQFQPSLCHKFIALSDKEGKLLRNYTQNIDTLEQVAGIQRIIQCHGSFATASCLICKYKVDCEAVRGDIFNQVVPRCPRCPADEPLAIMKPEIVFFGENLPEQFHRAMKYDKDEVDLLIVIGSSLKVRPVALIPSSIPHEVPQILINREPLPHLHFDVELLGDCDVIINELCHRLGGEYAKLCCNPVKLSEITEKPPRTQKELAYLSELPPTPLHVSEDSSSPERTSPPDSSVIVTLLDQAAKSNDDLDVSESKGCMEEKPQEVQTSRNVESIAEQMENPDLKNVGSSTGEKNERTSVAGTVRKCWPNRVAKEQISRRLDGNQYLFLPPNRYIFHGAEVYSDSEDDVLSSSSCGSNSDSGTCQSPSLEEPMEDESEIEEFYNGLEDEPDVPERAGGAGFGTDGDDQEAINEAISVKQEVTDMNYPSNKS
Type: biochemical
Description: A mass spectrometry based assay was used to identify modulators of SIRT1 activity. The mass spectrometry based assay utilizes a peptide having 20 amino acid residues as follows: Ac-EE-K(biotin)-GQSTSSHSK(Ac)NleSTEG-K(5TMR)-EE-NH2 (SEQ ID NO: 1) wherein K(Ac) is an acetylated lysine residue and Nle is a norleucine. The peptide is labeled with the fluorophore 5TMR (excitation 540 nm/emission 580 nm) at the C-terminus. The sequence of the peptide substrate is based on p53 with several modifications. In addition, the methionine residue naturally present in the sequence was replaced with the norleucine because the methionine may be susceptible to oxidation during synthesis and purification.
The mass spectrometry assay is conducted as follows: 0.5 μM peptide substrate and 120 μM βNAD^+ is incubated with 10 nM SIRT1 for 25 minutes at 25° C. in a reaction buffer (50 mM Tris-acetate pH 8, 137 mM NaCl, 2.7 mM KCl, 1 mM MgCl2, 5 mM DTT, 0.05% BSA). Test compounds may be added to the reaction as described above. […] After the 25 minute incubation with SIRT1, 10 μL of 10% formic acid is added to stop the reaction. Reactions are sealed and frozen for later mass spec analysis. Determination of the mass of the substrate peptide allows for precise determination of the degree of acetylation (i.e. starting material) as compared to deacetylated peptide (product).
A control for inhibition of sirtuin activity is conducted by adding 1 μL of 500 mM nicotinamide as a negative control at the start of the reaction (e.g., permits determination of maximum sirtuin inhibition). A control for activation of sirtuin activity is conducted using 10 nM of sirtuin protein, with 1 μL of DMSO in place of compound, to determine the amount of deacetylation of the substrate at a given timepoint within the linear range of the assay. This timepoint is the same as that used for test compounds and, within the linear range, the endpoint represents a change in velocity.
For the above assay, SIRT1 protein was expressed and purified as follows. […] The protein was expressed by induction with 1 mM IPTG as an N-terminal His-tag fusion protein at 18° C. overnight and harvested at 30,000×g. Cells were lysed with lysozyme in lysis buffer (50 mM Tris-HCl, 2 mM Tris[2-carboxyethyl]phosphine (TCEP), 10 μM ZnCl2, 200 mM NaCl) and further treated with sonication for 10 min for complete lysis. The protein was purified over a Ni-NTA column (Amersham) and fractions containing pure protein were pooled, concentrated and run over a sizing column (Sephadex S200 26/60 global). The peak containing soluble protein was collected and run on an Ion-exchange column (MonoQ). Gradient elution (200 mM-500 mM NaCl) yielded pure protein. This protein was concentrated and dialyzed against dialysis buffer (20 mM Tris-HCl, 2 mM TCEP) overnight. The protein was aliquoted and frozen at −80° C. until further use.
Sirtuin modulating compounds that activated SIRT1 were identified using the assay described above and are shown below in Table 1 for compounds of Formula (III)). The EC1.5 values represent the concentration of test compounds that result in 150% activation of SIRT1. The EC1.5 values for the activating compounds in Table 1 are represented by A (EC1.5<10.0 μM), B (EC1.5 10-25 μM), C (EC1.5>25 μM). The percent maximum fold activation is represented by A (Fold activation>200%) or B (Fold Activation<200%); “NT” means not tested; “ND” mean not determinable.

`O=C(Nc1ncc(CN2CCCC2)s1)C1CCCc2ccc(-c3cccc(C(F)(F)F)c3)nc21` (stereo not shown) [Compound 296] was tested. Which “EC1.5 (concentration of test compound that results in 150% activation of SIRT1)” value did it give?
The value was “C (EC1.5>25 μM)”.

With `O=C(Nc1cccc(CN2CCOCC2)n1)C1CCCc2ccc(-c3cccc(C(F)(F)F)c3)nc21` (stereo not shown) [Compound 297] as the compound, how does the “EC1.5 (concentration of test compound that results in 150% activation of SIRT1)” value read?
Its value is “C (EC1.5>25 μM)”.

How did the “EC1.5 (concentration of test compound that results in 150% activation of SIRT1)” value turn out when `O=C(Nc1cccc(N2CCOCC2)n1)C1CCOc2ccc(-c3cccc(C(F)(F)F)c3)nc21` (stereo not shown) [Compound 302, N-(6-morpholinopyridin-2-yl)-6-(3-(trifluoromethyl)phenyl)-3,4-dihydro-2H-pyrano[3,2-b]pyridine-4-carboxamide] was run?
The value was “C (EC1.5>25 μM)”.

How did the “EC1.5 (concentration of test compound that results in 150% activation of SIRT1)” value turn out when `O=C(Nc1ccncn1)C1CCOc2ccc(-c3cccc(C(F)(F)F)c3)nc21` (stereo not shown) [Compound 303] was run?
The value was “C (EC1.5>25 μM)”.
